“Also recorded” adds a separate entry of the source.
Experiments:
[1] = test system: FSP27; assay: Immunohistochemistry of cartilage, FSP27-positive cells, HFD-induced OA mouse model; type: in vivo; design: reference not given here; conditions: mice fed HFD, cilostazol 30 mg/kg/day orally 10 weeks; n=10
Protocol: HFD-induced OA mouse model. Sixty mice were fed a normal chow diet for one week and then mice were fed an HFD or a SD for 25 weeks. Ten mice from each diet were used histologically examine the effect of high fat diet. Forty mice were used to examine the effect of cilostazol. Mice fed a SD or HFD for 15 weeks were orally administered cilostazol at concentrations of 30 mg/kg/day for additional 10 weeks. SD+vehicle mice (n=10) were fed a SD and received DMSO. SD+cilostazol mice (n=10) were fed a SD and received cilostazol. HFD+vehicle mice (n=10) were fed a HFD and received DMSO. HFD+cilostazol mice (n=10) were fed a HFD and received cilostazol. Immunohistochemical observation and analysis. Tissue sections were incubated in 1:70-diluted goat serum solution for 30 minutes at room temperature, and then for 2 hours with 1:100-diluted primary antibody at room temperature. Next, sections were incubated with secondary antibody for 1 hour at 37° C. and developed using ABC complex. […] Histological images were observed and analyzed using a Aperio ScanScope® CS system. Total numbers of positive for […]27 and STAMP2 in four fields per animal were counted by an observer blinded to the experiment and the percentage of positive cells were calculated.

[2] = test system: FSP27; assay: Western blot of FSP27 protein in articular chondrocytes; type: cell-based, rat; conditions: 30 μM cilostazol, 1.5 mM oleate; n=4
Protocol: (§1) Rat articular chondrocytes for primary culture were isolated from knee joint cartilage slices by enzymatic digestion for 1 h with 0.2% type II collagenase (381 units/mg) in DMEM. After the isolated cells were collected by brief centrifugation, they were resuspended in DMEM supplemented with 10% (v/v) FBS, […] streptomycin and 50 units/ml penicillin (Gibco). The cells were plated on culture dishes at a density of 5×10^4 cells/cm^2. The medium was replaced every 2 days, and they reached confluence after approximately 5 days in culture. In each experiment, the cells from three animals were pooled and analyzed three times. FFA were dissolved in absolute ethanol at a concentration of 500 mM and diluted to final concentrations of FFAs with the appropriate concentration of 1% (w/v) FFA-free BSA. Controls were incubated with equal concentrations of FFA-free BSA containing ethanol. […] Cell (2×10^6) were washed twice with ice-cold PBS. Cells were resuspended in lysis buffer [200 ll of icecold solubilizing buffer (300 mM NaCl, 50 mM Tris-Cl (pH 7.6), 0.5% Triton X-100, protease inhibitor cocktail)] and incubated at 4° C. for 30 min. The lysates were centrifuged at 14,000 rpm for 20 min at 4° C. The protein concentrations of the cell lysates were measured with the Bradford protein assay reagent (Bio-Rad). Then, 50 μg of proteins was loaded onto 15 SDS-PAGE. The separated proteins were transferred to nitrocellulose membranes (Amersham Pharmacia Biotech, Piscataway, N.J., USA) and probed with each antibody. Immunostaining with the antibodies was carried out using the Super Signal West Pico enhanced chemiluminescence substrate and detected with LAS-3000PLUS.

[3] = test system: caspase-3 and -7; assay: Western blot of apoptosis-related factors (caspase-3 and -7 activation); type: cell-based, rat; conditions: 30 μM cilostazol, 1.5 mM oleate; n=4
Protocol: as §1, with “The lysates were centrifuged at 14,000 rpm for 20 min at 4° C.” left out, “Then, 50 μg of proteins was loaded onto 15 SDS-PAGE. The separated proteins were transferred to nitrocellulose membranes (Amersham Pharmacia Biotech, Piscataway, N.J., USA) and probed with each antibody.” left out

[4] = test system: HFD-induced cartilage destruction; assay: HFD-induced OA mouse model, histologic examination of cartilage; type: in vivo; conditions: mice fed HFD 25 weeks, cilostazol 30 mg/kg/day orally for the last 10 weeks; n=10
Protocol: All procedures for animal study were approved by the Committee on Animal Investigations at Dong-A University (DIACUC-15-12). Seven-week-old male C57BL/6 mice were obtained from Samtoko (Osan, Korea). Mice were maintained in a temperature-controlled room (22° C.) on a 12:12 h light-dark cycle and free access to water and food. HFD-induced OA mouse model. Sixty mice were fed a normal chow diet for one week and then mice were fed an HFD or a SD for 25 weeks. Ten mice from each diet were used histologically examine the effect of high fat diet. Forty mice were used to examine the effect of cilostazol. Mice fed a SD or HFD for 15 weeks were orally administered cilostazol at concentrations of 30 mg/kg/day for additional 10 weeks. SD+vehicle mice (n=10) were fed a SD and received DMSO. SD+cilostazol mice (n=10) were fed a SD and received cilostazol. HFD+vehicle mice (n=10) were fed a HFD and received DMSO. HFD+cilostazol mice (n=10) were fed a HFD and received cilostazol. Tissue preparation and histologic examination. Animals were killed by ether inhalation. Whole knee joints were removed by dissection, fixed in PBS (pH 7.4) containing 4% paraformaldehyde, decalcified in 12.5% EDTA, dehydrated, and embedded in paraffin blocks. Five-micrometer microsections were prepared and stained with hematoxylin and eosin and with Safranin O-fast green.

[5] = test system: rat articular chondrocytes; assay: DNA hypoploidy / cell cycle analysis by flow cytometry (apoptosis); type: cell-based; conditions: 30 μM cilostazol, 1.5 mM oleate; n=4
Protocol: Rat articular chondrocytes for primary culture were isolated from knee joint cartilage slices by enzymatic digestion for 1 h with 0.2% type II collagenase (381 units/mg) in DMEM. After the isolated cells were collected by brief centrifugation, they were resuspended in DMEM supplemented with 10% (v/v) FBS, […] streptomycin and 50 units/ml penicillin (Gibco). The cells were plated on culture dishes at a density of 5×10^4 cells/cm^2. The medium was replaced every 2 days, and they reached confluence after approximately 5 days in culture. In each experiment, the cells from three animals were pooled and analyzed three times. FFA were dissolved in absolute ethanol at a concentration of 500 mM and diluted to final concentrations of FFAs with the appropriate concentration of 1% (w/v) FFA-free BSA. Controls were incubated with equal concentrations of FFA-free BSA containing ethanol. […] Cells were washed twice with PBS, and fixed with cold 70% ethanol at 4° C. overnight. The fixed cells were pelleted and ethanol was removed by washing twice with PBS containing 1% bovine serum albumin (BSA). The cells were resuspended in 1 ml of PBS containing 11 Kunitz U/ml RNase A, incubated at 4° C. for 30 min and washed once with BSAPBS. Cells were resuspended in PI solution (50 μg/ml) and incubated at 37° C. for 30 min in dark. […]

[6] = test system: rat articular chondrocytes; assay: Total cytosol FFA content measurement; type: cell-based; conditions: cells treated with 1.6 mM palmitate and 0.4 mM oleate; n=4
Protocol: Cell were collected after treatment with trypsin (0.2% trypsin, 0.02% EDTA and 0.2% glucose in PBS) and pelleted by centrifugation (200×g for 5 min at 4° C.). Cell pellet was resuspended in ice-cold hypotonic lysis medium containing 20 mM Tris-HCl, pH 7.4 and 1 mM EDTA. Cells were homogenized with a Dounce homogenizer and then centrifuged (800×g for 5 min at 4° C.). The post-nuclear supernatant fraction was ultra-centrifuged ([…] for 5 min at 4° C.) using Beckman Table-top ultracentrifuge. LD fraction with the distinct white band on the preparation was removed with a pipetman and LD-free cytosol was used for FFA measurement. Cytosol FFA levels were measured using a commercial free fatty acid quantification kit from Abcam (ab65341).

[7] = test system: STAMP2; assay: Western blot of STAMP2 protein in articular chondrocytes; type: cell-based, rat; conditions: 30 μM cilostazol, 1.5 mM oleate; n=4
Protocol: as §1

O=C1CCc2cc(OCCCCc3nnnn3C3CCCCC3)ccc2N1 [cilostazol]
population of FSP27-positive cells [1]: significantly increased
effect on oleate-induced downregulation of FSP27 [2]: prevented the 1.5 mM oleate-induced downregulation of FSP27
effect on oleate-induced activation of caspase-3 and -7 [3]: prevented
HFD-induced cartilage destruction [4]: markedly prevented the HFD-induced cartilage destruction
effect on oleate-induced apoptosis (histograms) [5]: prevented 1.5 mM oleate-induced apoptosis
FFA level in the cytosol [6]: significantly decreased the FFA level in the cytosol
effect on oleate-induced downregulation of STAMP2 [7]: completely reversed the downregulation of STAMP2 induced by oleate; also recorded: reversed the 1.5 mM oleate (O)-induced downregulation of STAMP2
